From PubChem BioAssay AID1918998 (Molecular Pharmacology Branch, DTP, NCI, 2023)
One block for each compound: values may come before it.

System: 521955-158-R2-J5-PDC complex spheroid growth
Test: Anticancer human tumor 521955-158-R2-J5-PDC patient-derived pancreatic carcinoma cell line growth inhibition [AhR]
Settings: for IC50: curve of first compound; for viability, T/C: stronger effect = lower value
Source text: Multicellular complex tumor spheroid response to aryl hydrocarbon receptor antagonists in combination with a variety of drugs and investigational agents in selected tumor cell lines
The current study was undertaken to assess response to aryl hydrocarbon receptor antagonists in combination with standard-of-care drugs and investigational agents in solid tumor complex spheroid models. Complex spheroids include a stromal component modeled by human endothelial cells (HUVEC) and fibroblasts modeled by human mesenchymal stem cells (MSCs). The concentration ranges selected for each drug and investigational agent were based upon clinically achievable concentrations if the clinical Cmax of the agent was known.
Compounds. The drugs and investigational agents: BAY 2416964 (NSC825713), GNF351 (NSC835774), CH-223191 (NSC835775), CPI-455 (NSC825282), aza-TdCyd (NSC777586), decitabine (NSC127716), belinostat (NSC758774), entinostat (NSC756642), pevonedistat (NSC761192), tazemetostat (NSC777109), talazoparib (NSC765396), olaparib (NSC753686), selinexor (NSC780203), nedisertib (M3814, NSC802822), bortezomib (NSC756655), venetoclax (NSC766270), doxorubicin (NSC123127), elimusertib (BAY189344, NSC800525), ceralasertib (AZD6738, NSC777638), TAK-243 (NSC785004), alisertib (NSC759677), etoposide (NSC141540), topotecan (NSC609699), eribulin (NSC707389), gemcitabine (NSC613327), carboplatin (NSC241240), cisplatin (NSC119875), and SN-38 (NSC673596) were obtained from the National Cancer Institute (NCI) Developmental Therapeutics Program Chemical Repository (32). The FDA-approved anticancer drug set is available from the Developmental Therapeutics Program at https://dtp.cancer.gov/organization/dscb/obtaining/available plates.htm. […] The stock solutions were prepared in dimethyl sulfoxide (DMSO, Sigma-Aldrich, St. Louis, MO, cat. D2650), except for the platinum compounds which were prepared in saline (Quality Biological, Gaithersburg, MD, cat. 114-055-101), at 800-fold the tested concentration and stored at -70 degrees C prior to their use. All drugs and investigational agents were tested over a range starting from a high concentration at or near the clinical Cmax and decreasing in half-log increments. If the clinical Cmax for an agent had not been determined, the highest concentration tested was 10 microM (Table 1).
Cell Culture. All cells were maintained in an incubator at 37 degrees C and 5% CO2 with 95% humidity. The PDC lines were cultured according to standard operating procedures established by the NCI PDMR (https://pdmr.cancer.gov). Briefly, all PDCs were thawed and cultured in Matrigel-coated flasks prepared with a working solution of 1X Ham's F-12 nutrient mix, without supplementation (Invitrogen, Waltham, MA, cat. 11765054), 100 U/mL penicillin-streptomycin (Invitrogen, cat. 15140122), and 2.5% Matrigel (Corning Inc., Corning, NY, cat. 354248) for the first three passages. All PDCs were cultured in complete DMEM/F-12 media containing advanced DMEM/F-12 (Invitrogen, cat. 12634028), 4.9% defined fetal bovine serum, heat inactivated (HyClone Laboratories Inc., Logan, UT, cat. SH30070.03HI), 389 ng/mL hydrocortisone (Sigma-Aldrich, cat. H4001), 9.7 ng/mL human EGF recombinant protein (Invitrogen, cat. PHG0313), 23.4 microg/mL adenine (Sigma-Aldrich, cat. A2786), 97.3 U/mL penicillin-streptomycin (Invitrogen, cat. 15140122), 1.9 mM L-glutamine (Invitrogen, cat. 25030081), and 9.7 microM Y-27632 dihydrochloride (Tocris Bioscience, Bristol, United Kingdom, cat. 1254). The PDCs were cultured in complete DMEM/F12 media without 10 microM Y-27632 dihydrochloride for at least two passages prior to the screen. The established cell lines NCI-H1341 and […] were cultured in DMEM/F-12, HEPES (Invitrogen, cat. 11330032), 5% defined fetal bovine serum (HyClone Laboratories Inc., cat. SH30070.03), ITS premix universal culture supplement [insulin (5 microg/mL), transferrin (5 microg/mL), and selenious acid (5 ng/mL)] […]

[1] = second compound 0.1 µM, first compound 0.0316 µM
[2] = second compound 0.1 µM, first compound 0.1 µM
[3] = second compound 0.1 µM, first compound 0.316 µM
[4] = second compound 0.1 µM, first compound 1 µM
[5] = second compound 0.1 µM, first compound 3.16 µM
[6] = second compound 0.1 µM, first compound 10 µM
[7] = second compound 0.316 µM, first compound 0.0316 µM
[8] = second compound 0.316 µM, first compound 0.1 µM
[9] = second compound 0.316 µM, first compound 0.316 µM
[10] = second compound 0.316 µM, first compound 1 µM
[11] = second compound 0.316 µM, first compound 3.16 µM
[12] = second compound 0.316 µM, first compound 10 µM
[13] = second compound 1 µM, first compound 0.0316 µM
[14] = second compound 1 µM, first compound 0.1 µM
[15] = second compound 1 µM, first compound 0.316 µM
[16] = second compound 1 µM, first compound 1 µM
[17] = second compound 1 µM, first compound 3.16 µM
[18] = second compound 1 µM, first compound 10 µM
[19] = second compound 3.16 µM, first compound 0.0316 µM
[20] = second compound 3.16 µM, first compound 0.1 µM
[21] = second compound 3.16 µM, first compound 0.316 µM
[22] = second compound 3.16 µM, first compound 1 µM
[23] = second compound 3.16 µM, first compound 3.16 µM
[24] = second compound 3.16 µM, first compound 10 µM
[25] = second compound 10 µM, first compound 0.0316 µM
[26] = second compound 10 µM, first compound 0.1 µM
[27] = second compound 10 µM, first compound 0.316 µM
[28] = second compound 10 µM, first compound 1 µM
[29] = second compound 10 µM, first compound 3.16 µM
[30] = second compound 10 µM, first compound 10 µM
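For viability, T/C in this document: spheroids mix tumor cells with HUVEC endothelium and human MSC stroma; luminescence taken as viability surrogate after a week of drug exposure.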

IC50 (second compound 0.1 µM): 2.22 nM | IC50 (second compound 0.316 µM): < 0.949 nM | IC50 (second compound 1 µM): 1.21 nM | IC50 (second compound 3.16 µM): < 0.949 nM | IC50 (second compound 10 µM): < 0.949 nM
SMILES: CCc1c2c(nc3ccc(O)cc13)-c1cc3c(c(=O)n1C2)COC(=O)[C@]3(O)CC + CC(CO)NC(=O)c1cc(-c2ccc(Cl)cc2)nn(-c2cnn(C)c2)c1=O
viability, T/C (second compound 0.1 µM, first compound 0.000949 µM): 57.4% | viability, T/C (second compound 0.1 µM, first compound 0.003 µM): 47.5% | viability, T/C (second compound 0.1 µM, first compound 0.00949 µM): 15.7% | viability, T/C (second compound 0.1 µM, first compound 0.03 µM): 9.8% | viability, T/C (second compound 0.1 µM, first compound 0.0949 µM): 8.28% | viability, T/C (second compound 0.1 µM, first compound 0.3 µM): 5.09% | viability, T/C (second compound 0.316 µM, first compound 0.000949 µM): 49.1% | viability, T/C (second compound 0.316 µM, first compound 0.003 µM): 36.5% | viability, T/C (second compound 0.316 µM, first compound 0.00949 µM): 13.5% | viability, T/C (second compound 0.316 µM, first compound 0.03 µM): 9.73% | viability, T/C (second compound 0.316 µM, first compound 0.0949 µM): 8.11% | viability, T/C (second compound 0.316 µM, first compound 0.3 µM): 5.79% | viability, T/C (second compound 1 µM, first compound 0.000949 µM): 55.3% | viability, T/C (second compound 1 µM, first compound 0.003 µM): 30% | viability, T/C (second compound 1 µM, first compound 0.00949 µM): 16.4% | viability, T/C (second compound 1 µM, first compound 0.03 µM): 7.85% | viability, T/C (second compound 1 µM, first compound 0.0949 µM): 9.01% | viability, T/C (second compound 1 µM, first compound 0.3 µM): 4.72% | viability, T/C (second compound 3.16 µM, first compound 0.000949 µM): 35.5% | viability, T/C (second compound 3.16 µM, first compound 0.003 µM): 29.3% | viability, T/C (second compound 3.16 µM, first compound 0.00949 µM): 16.7% | viability, T/C (second compound 3.16 µM, first compound 0.03 µM): 12.7% | viability, T/C (second compound 3.16 µM, first compound 0.0949 µM): 9.72% | viability, T/C (second compound 3.16 µM, first compound 0.3 µM): 9.82% | viability, T/C (second compound 10 µM, first compound 0.000949 µM): 27.3% | viability, T/C (second compound 10 µM, first compound 0.003 µM): 23.6% | viability, T/C (second compound 10 µM, first compound 0.00949 µM): 14.9% | viability, T/C (second compound 10 µM, first compound 0.03 µM): 8.31% | viability, T/C (second compound 10 µM, first compound 0.0949 µM): 7.42% | viability, T/C (second compound 10 µM, first compound 0.3 µM): 6.21%

IC50 (second compound 0.1 µM): 518 nM | IC50 (second compound 0.316 µM): 549 nM | IC50 (second compound 1 µM): 504 nM | IC50 (second compound 3.16 µM): 178 nM | IC50 (second compound 10 µM): 101 nM
SMILES: Nc1ccn(C2OC(CO)C(O)C2(F)F)c(=O)n1 (stereo not given) + CC(CO)NC(=O)c1cc(-c2ccc(Cl)cc2)nn(-c2cnn(C)c2)c1=O
viability, T/C [1]: 59.8% | viability, T/C [2]: 75.3% | viability, T/C [3]: 72.4% | viability, T/C [4]: 24.4% | viability, T/C [5]: 13.2% | viability, T/C [6]: 13.6% | viability, T/C [7]: 56% | viability, T/C [8]: 73.8% | viability, T/C [9]: 86.4% | viability, T/C [10]: 26.1% | viability, T/C [11]: 11.4% | viability, T/C [12]: 9.09% | viability, T/C [13]: 90.5% | viability, T/C [14]: 87.8% | viability, T/C [15]: 68.7% | viability, T/C [16]: 22.6% | viability, T/C [17]: 14.2% | viability, T/C [18]: 14.8% | viability, T/C [19]: 78.1% | viability, T/C [20]: 56.4% | viability, T/C [21]: 45.5% | viability, T/C [22]: 20.9% | viability, T/C [23]: 16.4% | viability, T/C [24]: 11.9% | viability, T/C [25]: 50.2% | viability, T/C [26]: 54.5% | viability, T/C [27]: 36.3% | viability, T/C [28]: 22.5% | viability, T/C [29]: 15.5% | viability, T/C [30]: 10.5%

IC50 (second compound 0.1 µM): > 10000 nM | IC50 (second compound 0.316 µM): > 10000 nM | IC50 (second compound 1 µM): > 10000 nM | IC50 (second compound 3.16 µM): > 10000 nM | IC50 (second compound 10 µM): > 10000 nM
SMILES: O=C(c1cc(Cc2n[nH]c(=O)c3ccccc23)ccc1F)N1CCN(C(=O)C2CC2)CC1 + CC(CO)NC(=O)c1cc(-c2ccc(Cl)cc2)nn(-c2cnn(C)c2)c1=O
viability, T/C [1]: 116% | viability, T/C [2]: 107% | viability, T/C [3]: 116% | viability, T/C [4]: 85.6% | viability, T/C [5]: 76.7% | viability, T/C [6]: 75.3% | viability, T/C [7]: 102% | viability, T/C [8]: 119% | viability, T/C [9]: 93.7% | viability, T/C [10]: 101% | viability, T/C [11]: 73.2% | viability, T/C [12]: 71.3% | viability, T/C [13]: 101% | viability, T/C [14]: 104% | viability, T/C [15]: 110% | viability, T/C [16]: 88.7% | viability, T/C [17]: 83.7% | viability, T/C [18]: 72.6% | viability, T/C [19]: 91.9% | viability, T/C [20]: 128% | viability, T/C [21]: 110% | viability, T/C [22]: 97.7% | viability, T/C [23]: 85.4% | viability, T/C [24]: 70.5% | viability, T/C [25]: 68.5% | viability, T/C [26]: 82.6% | viability, T/C [27]: 87.4% | viability, T/C [28]: 79.9% | viability, T/C [29]: 70.6% | viability, T/C [30]: 50.5%
